Measurements: BindingDB's records for doi:10.1016/0960-894X(96)00068-6 (1996)

Assays:
[1] = Compound was evaluated for inhibition of beta-galactosidase from aspergillus oryzae (sigma G 7256).
[2] = Compound was evaluated for inhibition of alpha-galactosidase from green coffee beans (sigma G 8507).
[3] = Compound was evaluated for inhibition of beta-glucosidase from almonds(sigma G 4511).
[4] = Compound was evaluated for inhibition of alpha-fucosidase from bovine kidney(sigma F 5884).
[5] = Inhibition of jack bean alpha-mannosidase

With `CCCCN1CC(C)C(O)C(O)C1` (stereo not given) [1-Butyl-5-methyl-piperidine-3,4-diol] the IC50 [1] was > 1000 µM, the IC50 [2] was > 1000 µM and the IC50 [3] was 80 µM. For the same compound, the IC50 [4] was 270 µM and the IC50 [5] was > 1000 µM.
